Among the data in ChEMBL document CHEMBL3112401, “Activity of diimidazoline amides against African trypanosomiasis” (Bioorg Med Chem Lett, 2014) are Activity, MSD and IC50 values, retold here.

What is called IC50 is the point on the concentration scale where inhibition reaches its midpoint.

Activity calls are given as the source filed them. The rule behind the calls is not given here. Where only a bound is given, the exact number is not on record here.

One data set relates to Trypanosoma brucei rhodesiense. Nature of the data set: Antitrypanosomal activity against Trypanosoma brucei rhodesiense infected in mouse assessed as cure rate at 40 mg/kg, ip administered on day 1 to 3 relative to control. The class given is functional. The settings on record: route intraperitoneal.
In the case of `CS(=O)(=O)O.O=C(Nc1ccc(C2=NCCN2)cc1)c1ccc(-c2ccc(C(=O)Nc3ccc(C4=NCCN4)cc3)cc2)cc1`, the Activity amounted to 100%.
The same measure, in the same setting: to `CS(=O)(=O)O.O=C(Nc1cccc(C(=O)Nc2ccc(C3=NCCN3)cc2)c1)c1ccc(C2=NCCN2)cc1` belongs 100%; to `O=C(Nc1ccc(C2=NCCN2)cc1)c1ccc(-c2cc3ccc(C4=NCCN4)cc3[nH]2)cc1`, 100%; to `CS(=O)(=O)O.O=C(Nc1ccc(C2=NCCN2)cc1)c1ccc(C2=NCCN2)cc1`, 100%.
As for `CS(=O)(=O)O.O=C(NCc1ccc(C2=NCCN2)cc1)c1ccc(-c2cc3ccc(C4=NCCN4)cc3[nH]2)cc1`, the Activity was determined as 100%.
On the same count and under the same terms, to `CS(=O)(=O)O.O=C(Nc1ccc(C2=NCCN2)cc1)c1ccc(C(=O)Nc2ccc(C3=NCCN3)cc2)cc1` belongs 100%; to `CS(=O)(=O)O.O=C(Nc1ccc(C2=NCCN2)cc1)c1cccc(C(=O)Nc2ccc(C3=NCCN3)cc2)c1`, 100%.
`CS(=O)(=O)O.O=C(Nc1ccc(C2=NCCN2)cc1)c1ccc(NC(=O)c2ccc(C3=NCCN3)cc2)cc1`: the Activity is on record as 100%.
Turning to `CS(=O)(=O)O.O=C(Nc1ccc(NC(=O)c2ccc(C3=NCCN3)cc2)cc1)c1ccc(C2=NCCN2)cc1`, the Activity amounted to 100%.
Same read-out and setting: to `O=C(NCc1ccncc1)c1ccc(-c2cc3ccc(C4=NCCN4)cc3[nH]2)cc1` belongs 100%.

In the next data set the test system is Mus musculus. The data set can be described thus: Toxicity in mouse infected with Trypanosoma brucei rhodesiense at 50 mg/kg, ip measured after day 3. The class given is organism-based. On the set-up: dose 50 mg/kg, route intraperitoneal. The settings on record: in vivo.
Regarding `CS(=O)(=O)O.O=C(Nc1ccc(C2=NCCN2)cc1)c1ccc(-c2ccc(C(=O)Nc3ccc(C4=NCCN4)cc3)cc2)cc1`, the Activity result was “Non-toxic”.
The same measure, in the same setting: to `CS(=O)(=O)O.O=C(Nc1cccc(C(=O)Nc2ccc(C3=NCCN3)cc2)c1)c1ccc(C2=NCCN2)cc1` belongs “Non-toxic”; to `CS(=O)(=O)O.O=C(Nc1ccc(C2=NCCN2)cc1)c1ccc(C2=NCCN2)cc1`, “Non-toxic”.
Consider `CS(=O)(=O)O.O=C(NCc1ccc(C2=NCCN2)cc1)c1ccc(-c2cc3ccc(C4=NCCN4)cc3[nH]2)cc1`, for which the Activity result is listed as “Toxic”.
Regarding `CS(=O)(=O)O.O=C(Nc1ccc(C2=NCCN2)cc1)c1ccc(NC(=O)c2ccc(C3=NCCN3)cc2)cc1`, the Activity result is given as “Non-toxic”.
The same measure, in the same setting: to `CS(=O)(=O)O.O=C(Nc1ccc(NC(=O)c2ccc(C3=NCCN3)cc2)cc1)c1ccc(C2=NCCN2)cc1` belongs “Non-toxic”.

The subject of the next data set is Trypanosoma brucei rhodesiense. The data set can be described thus: Antitrypanosomal activity against Trypanosoma brucei rhodesiense infected in mouse assessed as mean survival days at 50 mg/kg, ip administered on day 3 to 6 (reference value: 6 to 10 days). The class given is functional. The settings on record: route intraperitoneal.
Consider `CS(=O)(=O)O.O=C(Nc1ccc(C2=NCCN2)cc1)c1ccc(-c2ccc(C(=O)Nc3ccc(C4=NCCN4)cc3)cc2)cc1`, for which the MSD was found to be 11 days.
On to `CS(=O)(=O)O.O=C(Nc1cccc(C(=O)Nc2ccc(C3=NCCN3)cc2)c1)c1ccc(C2=NCCN2)cc1`, for which the MSD was more than 60 days.
The same measure, in the same setting: the value for `CS(=O)(=O)O.O=C(Nc1ccc(C2=NCCN2)cc1)c1ccc(C2=NCCN2)cc1` was 34 days; that for `CS(=O)(=O)O.O=C(Nc1ccc(C2=NCCN2)cc1)c1ccc(C(=O)Nc2ccc(C3=NCCN3)cc2)cc1` was 39 days.
For `CS(=O)(=O)O.O=C(Nc1ccc(C2=NCCN2)cc1)c1cccc(C(=O)Nc2ccc(C3=NCCN3)cc2)c1`, the MSD was more than 60 days.
Turning to `CS(=O)(=O)O.O=C(Nc1ccc(C2=NCCN2)cc1)c1ccc(NC(=O)c2ccc(C3=NCCN3)cc2)cc1`, the MSD was more than 60 days.
In the case of `CS(=O)(=O)O.O=C(Nc1ccc(NC(=O)c2ccc(C3=NCCN3)cc2)cc1)c1ccc(C2=NCCN2)cc1`, the MSD was more than 60 days.

A further data set has as its system Trypanosoma brucei rhodesiense. The data set can be described thus: Antitrypanosomal activity against Trypanosoma brucei rhodesiense infected in mouse assessed as survival more than 60 days without parasitemia relapse at 50 mg/kg, ip administered on day 3 to 6. The class given is functional, organism-based. Details: dose 50 mg/kg.
Conditions: not given
For `CS(=O)(=O)O.O=C(Nc1ccc(C2=NCCN2)cc1)c1ccc(-c2ccc(C(=O)Nc3ccc(C4=NCCN4)cc3)cc2)cc1`, the outcome was inactive.
The same measure, in the same setting: the value for `CS(=O)(=O)O.O=C(Nc1cccc(C(=O)Nc2ccc(C3=NCCN3)cc2)c1)c1ccc(C2=NCCN2)cc1` was “Active”; that for `CS(=O)(=O)O.O=C(NCc1ccc(C2=NCCN2)cc1)c1ccc(-c2cc3ccc(C4=NCCN4)cc3[nH]2)cc1` was “inactive”.
On the same count and under the same terms, to `CS(=O)(=O)O.O=C(Nc1ccc(C2=NCCN2)cc1)c1cccc(C(=O)Nc2ccc(C3=NCCN3)cc2)c1` belongs “Active”; to `CS(=O)(=O)O.O=C(Nc1ccc(C2=NCCN2)cc1)c1ccc(NC(=O)c2ccc(C3=NCCN3)cc2)cc1`, “Active”; to `CS(=O)(=O)O.O=C(Nc1ccc(NC(=O)c2ccc(C3=NCCN3)cc2)cc1)c1ccc(C2=NCCN2)cc1`, “Active”.

The subject of another data set is L6. Nature of the data set: Cytotoxicity against rat L6 cells assessed as cell viability after 70 hrs by MTT assay. The format is cell-based. The settings on record: L6, 70 h.
For `CS(=O)(=O)O.O=C(Nc1ccc(C2=NCCN2)cc1)c1ccc(-c2ccc(C(=O)Nc3ccc(C4=NCCN4)cc3)cc2)cc1`, the IC50 is more than 150 µM.
On to `Nc1nc(N)nc(Nc2ccc([As]3SCC(CO)S3)cc2)n1` (stereo unspecified) [MELARSOPROL], for which the IC50 was determined as 19 µM.
For the compound `O=C(NCc1ccc(C2=NCCN2)cc1)c1cccc(C(=O)NCc2ccc(C3=NCCN3)cc2)c1`, the IC50 is more than 150 µM.
Same read-out and setting: the value for `CS(=O)(=O)O.O=C(Nc1cccc(C(=O)Nc2ccc(C3=NCCN3)cc2)c1)c1ccc(C2=NCCN2)cc1` was 99 µM; that for `O=C(Nc1ccc(C2=NCCN2)cc1)c1ccc(-c2cc3ccc(C4=NCCN4)cc3[nH]2)cc1` was 19 µM; that for `O=C(N[C@H]1CC[C@H](NC(=O)c2ccc(C3=NCCN3)cc2)CC1)c1ccc(C2=NCCN2)cc1` was 130 µM.
Still for that read-out and setting: the value for `O=C(NCc1ccccc1)c1ccc(-c2cc3ccc(C4=NCCN4)cc3[nH]2)cc1` was 110 µM.
On the same count and under the same terms, to `CS(=O)(=O)O.O=C(Nc1ccc(C2=NCCN2)cc1)c1ccc(C2=NCCN2)cc1` belongs 68 µM.
Take `CS(=O)(=O)O.O=C(NCc1ccc(C2=NCCN2)cc1)c1ccc(-c2cc3ccc(C4=NCCN4)cc3[nH]2)cc1`: the IC50 came to 41 µM.
The same measure, in the same setting: to `CS(=O)(=O)O.O=C(Nc1ccc(C2=NCCN2)cc1)c1ccc(C(=O)Nc2ccc(C3=NCCN3)cc2)cc1` belongs 110 µM; to `CS(=O)(=O)O.O=C(Nc1ccc(C2=NCCN2)cc1)c1cccc(C(=O)Nc2ccc(C3=NCCN3)cc2)c1`, 120 µM.
For `CS(=O)(=O)O.O=C(Nc1ccc(C2=NCCN2)cc1)c1ccc(NC(=O)c2ccc(C3=NCCN3)cc2)cc1`, the IC50 came out at 50 µM.
Still for that read-out and setting: to `O=C(NCc1ccc(C2=NCCN2)cc1)c1ccc(C(=O)NCc2ccc(C3=NCCN3)cc2)cc1` belongs 92 µM.
For `N=C(N)c1ccc(OCCCCCOc2ccc(C(=N)N)cc2)cc1` [PENTAMIDINE ISETHIONATE], the IC50 came out at 5.1 µM.
Regarding `CS(=O)(=O)O.O=C(Nc1ccc(NC(=O)c2ccc(C3=NCCN3)cc2)cc1)c1ccc(C2=NCCN2)cc1`, the IC50 is 92 µM.
Same read-out and setting: to `O=C(NCc1ccncc1)c1ccc(-c2cc3ccc(C4=NCCN4)cc3[nH]2)cc1` belongs 89 µM.

The next data set has as its system Trypanosoma brucei rhodesiense. The data set can be described thus: Antitrypanosomal activity against Trypanosoma brucei rhodesiense STIB900 assessed as parasite growth inhibition after 70 hrs by Alamar blue assay. The settings on record: STIB900, 70 h. The class given is functional, organism-based.
With `CS(=O)(=O)O.O=C(Nc1ccc(C2=NCCN2)cc1)c1ccc(-c2ccc(C(=O)Nc3ccc(C4=NCCN4)cc3)cc2)cc1`, the IC50 came to 0.019 µM.
Same read-out and setting: the value for `Nc1nc(N)nc(Nc2ccc([As]3SCC(CO)S3)cc2)n1` (stereo unspecified) [MELARSOPROL] was 0.0038 µM; that for `O=C(NCc1ccc(C2=NCCN2)cc1)c1cccc(C(=O)NCc2ccc(C3=NCCN3)cc2)c1` was 64 µM.
`CS(=O)(=O)O.O=C(Nc1cccc(C(=O)Nc2ccc(C3=NCCN3)cc2)c1)c1ccc(C2=NCCN2)cc1`: the IC50 is 0.12 µM.
As for `O=C(Nc1ccc(C2=NCCN2)cc1)c1ccc(-c2cc3ccc(C4=NCCN4)cc3[nH]2)cc1`, the IC50 was determined as 0.0022 µM.
The same measure, in the same setting: the value for `O=C(N[C@H]1CC[C@H](NC(=O)c2ccc(C3=NCCN3)cc2)CC1)c1ccc(C2=NCCN2)cc1` was 0.69 µM.
`O=C(NCc1ccccc1)c1ccc(-c2cc3ccc(C4=NCCN4)cc3[nH]2)cc1`: the IC50 stood at 2.2 µM.
Still for that read-out and setting: to `CS(=O)(=O)O.O=C(Nc1ccc(C2=NCCN2)cc1)c1ccc(C2=NCCN2)cc1` belongs 0.086 µM; to `CS(=O)(=O)O.O=C(NCc1ccc(C2=NCCN2)cc1)c1ccc(-c2cc3ccc(C4=NCCN4)cc3[nH]2)cc1`, 0.0015 µM.
Still for that read-out and setting: the value for `CS(=O)(=O)O.O=C(Nc1ccc(C2=NCCN2)cc1)c1ccc(C(=O)Nc2ccc(C3=NCCN3)cc2)cc1` was 0.0047 µM.
In the case of `CS(=O)(=O)O.O=C(Nc1ccc(C2=NCCN2)cc1)c1cccc(C(=O)Nc2ccc(C3=NCCN3)cc2)c1`, the IC50 turned out to be 0.051 µM.
Same read-out and setting: the value for `CS(=O)(=O)O.O=C(Nc1ccc(C2=NCCN2)cc1)c1ccc(NC(=O)c2ccc(C3=NCCN3)cc2)cc1` was 0.011 µM; that for `O=C(NCc1ccc(C2=NCCN2)cc1)c1ccc(C(=O)NCc2ccc(C3=NCCN3)cc2)cc1` was 9.5 µM.
On the same count and under the same terms, to `N=C(N)c1ccc(OCCCCCOc2ccc(C(=N)N)cc2)cc1` [PENTAMIDINE ISETHIONATE] belongs 0.0015 µM.
Same read-out and setting: to `CS(=O)(=O)O.O=C(Nc1ccc(NC(=O)c2ccc(C3=NCCN3)cc2)cc1)c1ccc(C2=NCCN2)cc1` belongs 0.12 µM.
On to `O=C(NCc1ccncc1)c1ccc(-c2cc3ccc(C4=NCCN4)cc3[nH]2)cc1`, for which the IC50 came out at 0.023 µM.
